In PubChem BioAssay (NCI):
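Growth conditions: 96-well plates. Treatment: test compound, 48 hours, 5 concentrations. Analysis: linear interpolation between bracketing concentrations; unreached endpoints set to highest concentration. GI50 = concentration required for 50% inhibition of growth. TGI: concentration producing complete growth inhibition.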

Tests used:
Test in all cases: inhibition of tumour cell growth, NCI panel, 48 h
[1] = tested on: RPMI-8226 leukemia
[2] = tested on: COLO 205 colon
[3] = tested on: NCI-H522 lung
[4] = tested on: PC-3 prostate
[5] = tested on: 786-0 renal
[6] = tested on: OVCAR-8 ovarian
[7] = tested on: SK-MEL-2 melanoma
[8] = tested on: NCI-H226 lung
[9] = tested on: CCRF-CEM leukemia
[10] = tested on: K-562 leukemia

Row | Compound | GI50 [1] [µM] | TGI [1] [µM] | GI50 [2] [µM] | TGI [2] [µM] | GI50 [3] [µM] | TGI [3] [µM] | GI50 [4] [µM] | TGI [4] [µM] | GI50 [5] [µM] | TGI [5] [µM] | GI50 [6] [µM] | TGI [6] [µM] | GI50 [7] [µM] | TGI [7] [µM] | GI50 [8] [µM] | TGI [8] [µM] | GI50 [9] [µM] | TGI [9] [µM] | GI50 [10] [µM] | TGI [10] [µM]
1 | O=C(/C=C/c1ccncc1)c1cc(Cl)ccc1O | 2.34 | 5.25 | 16.8 | 32.3 | 14.1 | 29.6 | 14.8 | 33.6 | 17.9 | 34.1 | 23.6 | 57 | 19.7 | 37.8 | 22.7 | 58 | 7.95 | 36.2 |  | 
2 | O=C1OC(O)[C@@H]2[C@H]1[C@H]1CC[C@@H]2O1 (stereo partly drawn) | 49.2 | > 100 | 1.21 | 6.31 | 26.3 | 74.9 | > 100 | > 100 | > 100 | > 100 | > 100 | > 100 | 39 | > 82.4 | > 79.4 | > 100 | > 100 | > 100 | > 100 | > 100
3 | COC(=O)C1=C(C)NC(C)=C(C(=O)OCCCN2CCC(c3ccccc3)(c3ccccc3)CC2)C1c1cccc([N+](=O)[O-])c1 (stereo not drawn) |  | 5.82 |  | 3.08 |  | 4.72 |  | 3.05 |  | 2.99 |  | 3.39 |  | 4.74 |  | 18.2 |  | > 100 |  | > 100
4 | CCCCCCCC(=O)SCC/C=C/[C@@H]1CC(=O)NCc2cc(ccn2)C2=N[C@@](C)(CS2)C(=O)N[C@@H](C(C)C)C(=O)O1 | 0.116 | > 33.3 | 0.0513 | 0.147 | 0.00721 | 0.204 | 0.0124 | > 33.3 | 0.0291 | > 33.3 | 0.0109 | > 33.3 | 0.015 | 0.595 | 0.0818 | 1.62 | 0.0231 | > 33.3 | 0.0248 | > 33.3
5 | CC(=O)OC1=CC(n2cc(F)c(=O)[nH]c2=O)OC(C)C1=O (stereo not drawn) |  | > 100 |  | > 100 |  | > 100 |  | > 100 |  | > 100 |  | > 100 |  | > 100 |  | > 100 |  | > 100 |  | > 100
6 | CC(C)C(C)/C=C\C(C)C1CCC2C3=CC=C4CC(O)CCC4(C)C3CCC21C (stereo not drawn) |  | > 100 |  | > 61.6 |  | > 100 |  | > 100 |  | > 60.7 |  | > 53.9 |  | > 100 |  | > 65.3 |  | > 66.9 |  | > 100
7 | COc1ccc(/C=C(/C#N)n2nnc3cccc(F)c32)cc1 | 2.18 | > 100 | 0.811 | > 100 | 0.301 | > 100 | 1.63 | > 100 | 2.42 | > 100 | 1.97 | > 100 | 0.653 | 21.9 | 2.87 | 53.8 | 0.949 | > 100 | 0.352 | > 100
8 | Nc1ncnc2c1nnn2C1OC(CO)C(O)C1O (stereo not drawn) |  | 5.71 |  | 2.73 |  | 4.51 | 0.247 | 5.38 | 0.38 | 14 |  | 8.97 |  | 1.74 |  | 12 |  | 27.9 |  | 13.9
9 | COc1cc(/C=C/c2cc(O)c(C(C)=O)c(O)c2)cc2c1O[C@]1(C)CC[C@@H](O)C(C)(C)[C@H]1C2 |  |  | 16.1 | 68.3 | 17.3 | 54 | 3.75 | > 100 | 2.91 | 28.9 | 8.24 | > 100 | 7.87 | 51.6 | 16.8 | 54.2 | 4.4 | > 100 | 3.64 | > 100
10 | Cc1cc(/C=C/c2ccc3cc(N(C)C)ccc3[n+]2C)c(C)n1-c1ccccc1 | 0.0698 | 0.696 | 0.103 | 0.213 | 0.103 | 0.989 | 0.13 | 0.765 | 0.262 | 1.53 | 0.143 | 0.76 | 0.27 | 1.06 | 0.117 | 0.74 | 0.218 | 2.6 |  | 
11 | COC1=CC(=O)C(C2CC(=O)c3c(O)cc(O)cc3O2)=CC1=O (stereo not drawn) |  | > 100 |  | 32.3 |  | 30.8 |  | 31.1 |  | 31.7 |  | 59.7 |  | 34.4 |  | 40.4 |  | 2.42 |  | 40.8
12 | COc1cc2c3c(n(C)c(=O)c2cc1OC)-c1cc2c(cc1/C3=C\CCN)OCO2 | 0.061 | 0.975 | 0.975 | > 100 | 0.851 | > 100 | 0.324 | 2.94 | 0.132 | 6.21 | 0.169 | 5.65 | 6.11 | 27 | 0.517 | 2.42 | < 0.0104 |  | 0.0397 | 1.5
13 | OCC#Cc1ccccc1C#Cc1ccccc1 | 3 | 11.8 | 19.6 | 37.6 | 24.1 | 69 | 11.5 | 24.1 | 14.6 | 27.7 | 19.6 | 40.6 | 24.1 | 51.3 | 15 | 29.4 | 7.14 | 39.8 | 26 | > 100
14 | Cc1c2c(nn1-c1ccc(S(=O)(=O)/N=C3\SCCC(=O)N3c3ccccc3)cc1)-c1ccccc1CC2 |  |  | > 100 | > 100 | 91.4 | > 100 | > 100 | > 100 | 81.7 | > 100 | 89.6 | > 100 | > 100 | > 100 | 84.4 | > 100 | > 100 | > 100 | > 100 | > 100
